These results are taken from patent US7429607B2, “5-HT2B receptor antagonists” (Asterand UK Limited, priority 2002, dated 2008).

A value given as a limit tells only on which side of the number the result lay.

For series [1], the target named is T1, human cloned 5-HT2B receptors (Homo sapiens, UniProt P41595).
T1 construct: expressed in transfected cells; host or cells: CHO-K1 cells
The series is described as follows: Human cloned 5-HT2B receptor binding assay ([3H]LSD, CHO-K1 membranes). The settings on record: displacement of [3H]LSD (1 nM), read-out: 5-HT2B pKi (converted). The protocol:
The binding affinity of the compounds for human cloned 5-HT2B receptors was determined using the following assay.
CHO-K1 cells expressing cloned 5-HT2B receptor were maintained in Ultra-CHO medium containing 400 μg/ml of G418, 100 U/ml penicillin, 100 μg/ml streptomycin, 2.5 μg/ml fungizone and 1% foetal bovine serum, in 95/5% O2/CO2 at 37° C. The cells were harvested using 0.25% trypsin and were centrifuged at 800 rpm for 8 minutes. The cells were homogenised in 50 mM HEPES buffer containing 1 mM disodium EDTA and 1 mM PMSF at pH 7.4, using a Dounce homogeniser (20 strokes). The homogenate was centrifuged at 2280 rpm (1000 g) and 4° C. for 10 minutes, after which the supernatant was removed by decanting. The pellet was re-homogenised as above, and the resulting supernatant removed and combined with that already obtained. The supernatant solution was then centrifuged at 18300 rpm (40000 g) for 10 minutes at 4° C. using a Sorvall centrifuge. The supernatant was removed, and the pellet was re-suspended in 50 mM buffer at pH 7.4 using a Ultra-turrax T25 Polytron, before centrifugation again at 40000 g as above. This wash procedure was repeated, after which the membrane preparation was stored at a concentration of 1 mg/ml at −80° C. until use.
The membranes were thawed rapidly and diluted in assay buffer containing Tris-HCl (50 mM, pH 7.4), ascorbic acid (0.1%) and calcium chloride (4 mM). The membranes were homogenised to resuspend them, prior to adding 10 or 15 μg of membranes to assay wells containing [^3H]LSD (1 nM), assay buffer (50 mM Tris, 4 mM calcium chloride and 0.1% ascorbic acid) containing pargyline (10 μM), and the test compounds (1×10^−10 to 1×10^−4M). Non specific binding was determined in the presence of 100 μM 5-HT. After 30 minutes incubation at 37° C., the assay mixture was filtered through a combination of GF-C and GF-B filters, pre-soaked in 1% polyethyleneimine, using a Brandel cell harvester, and were washed three times using 50 mM Tris-HCl. Radioactivity retained on the filters was determined by liquid scintillation counting. For each test compound, the concentration that inhibited binding of [3H]LSD by 50% was determined using curve fitting software (Prism). Kd values (concentration of LSD required to occupy 50% of the receptor binding sites at equilibrium) determined from saturation binding studies were then used to calculate inhibition dissociation constants (Ki) using the following equation: […]
This approach follows that set out in Kenakin, T.P. Pharmacologic analysis of drug-receptor interaction. Raven Press, New York, 2nd Edition.
A general note: Displacement assays read how much labelled ligand stays bound in the presence of the test substance.

Series [2] concerns the target T2, cloned human 5-HT2A receptor (Homo sapiens, UniProt P28223).
T2 construct: purchased Euroscreen; host or cells: CHO-K1 cells
The experiment in a line: Human 5-HT2A receptor binding assay ([3H]ketanserin, CHO-K1 membranes). The settings on record: displacement of [3H]ketanserin (1 nM), read-out: 5-HT2A pKi (converted). The protocol:
(§1) The binding affinity of ligands for human 5-HT2A and 5-HT2C receptors was determined using the following assay.
Membrane preparations from CHO-K1 cells expressing the cloned human 5-HT2A receptor were obtained (Euroscreen). The membranes were thawed rapidly and diluted in assay buffer containing Tris-HCl (50 mM, pH 7.7). The membranes were resuspended by homogenisation, prior to adding 15 μg of membranes to assay wells containing [3H] ketanserin (1 nM), assay buffer (50 mM Tris at pH 7.4) containing pargyline (10 μM), and test compounds (1×10^−10 to 1×10^−4M). Non specific binding was determined in the presence of 100 μM mianserin. After 15 minutes incubation at 37° C., the assay mixture was filtered through a combination of GF-C and GF-B filters, pre-soaked in 0.05% Brij, using a Brandel cell harvester, and were washed three times using ice cold Tris-HCl buffer (50 mM). Radioactivity retained on the filters was determined by liquid scintillation counting. For each test compound, the concentration that inhibited binding of [^3H]ketanserin by 50% was determined using curve fitting software (Prism). Kd values (concentration of ketanserin required to occupy 50% of the receptor binding sites at equlibrium) determined from saturation binding studies were then used to calculate inhibition dissociation constants (Ki) using the following equation: […]

For series [3], the target named is T3, cloned human 5-HT2C receptor (Homo sapiens, UniProt P28335).
T3 construct: purchased Euroscreen; host or cells: CHO-K1 cells
T3 sequence (P28335 33-458): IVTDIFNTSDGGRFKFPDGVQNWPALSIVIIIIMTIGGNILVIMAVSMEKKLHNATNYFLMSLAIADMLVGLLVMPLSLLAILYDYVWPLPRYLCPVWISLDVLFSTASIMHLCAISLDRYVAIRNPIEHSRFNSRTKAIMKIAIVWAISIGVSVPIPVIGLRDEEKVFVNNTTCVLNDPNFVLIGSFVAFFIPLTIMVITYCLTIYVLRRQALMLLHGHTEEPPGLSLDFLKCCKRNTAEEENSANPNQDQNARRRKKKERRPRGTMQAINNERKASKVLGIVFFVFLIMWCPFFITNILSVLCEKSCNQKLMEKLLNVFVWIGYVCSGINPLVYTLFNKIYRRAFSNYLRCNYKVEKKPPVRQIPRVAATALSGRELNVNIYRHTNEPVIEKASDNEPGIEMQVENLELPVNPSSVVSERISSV
The experiment in a line: Human 5-HT2C receptor binding assay ([3H]mesulergine, CHO-K1 membranes). Conditions: displacement of [3H]mesulergine (1 nM), read-out: 5-HT2C pKi (converted). The protocol: as §1
Membrane preparations from CHO-K1 cells expressing the cloned human 5-HT2C receptor were obtained (Euroscreen). The membranes were thawed rapidly and diluted in assay buffer containing Tris-HCl (50 mM, pH 7.7), ascorbic acid (0.1%) and pargyline (10 μM). The membranes were resuspended by homogenisation, prior to adding 6 μg of membranes to assay wells containing [^3H] mesulergine (1 nM), assay buffer (50 mM Tris at pH 7.7 and 0.1% ascorbic acid) containing pargyline (10 μM), and test compounds (1×10^−10 to 1×10^−4M). Non specific binding was determined in the presence of 100 μM mianserin. After 30 minutes incubation at 37° C., the assay mixture was filtered through a combination of GF-C and GF-B filters, pre-soaked in 1% bovine serum albumin, using a Brandel cell harvester, and were washed three times using ice cold Tris-HCl buffer (50 mM). Radioactivity retained on the filters was determined by liquid scintillation counting. For each test compound, the concentration that inhibited binding of [3H]mesulergine by 50% was determined using curve fitting software (Prism). Kd values (concentration of mesulergine required to occupy 50% of the receptor binding sites at equlibrium) determined from saturation binding studies were then used to calculate inhibition dissociation constants (Ki) using the following equation: […]

In series [4] the target is T1, human cloned 5-HT2B receptors. The experiment in a line: Human cloned 5-HT2B cell-based functional assay (Fluo-4, CHO.K1 cells). The settings on record: inhibition of 5-HT response, CHO.K1 cells expressing cloned 5-HT2B, Fluo-4 AM. The protocol:
The following describes an in vitro functional assay using human cloned 5-HT2B receptors to determine the ability of compounds to block the receptor. CHO.K1 cells expressing cloned 5-HT2B receptor were maintained In Ultra-CHO medium containing 400 μg/ml of G418, 100 U/ml penicillin, 100 μg/ml streptomycin, 2.5 μg/ml fungizone, in 95/5% O2/CO2 at 37° C. Ultra-CHO medium additionally supplemented with 1% foetal bovine serum was used when seeding the cells and removed after 5 hours. Cells were plated in Costar 96 well white, clear-bottomed plate at a density of 50,000 cells per well and incubated for at least 24 hours in 95/5% O2/CO2 at 37° C. before running the assay. Media was removed from the wells and 200 μl of 4 μM Fluo-4 AM added, this was incubated in a Wallace Victor 2V workstation at 37° C. for 30 minutes. The Fluo-4 AM was then removed from the wells, which were then washed twice with 200 μl of buffer (HBSS without calcium/magnesium/phenol red, 20 mM HEPES, 1 mM Ca^2+, 1 mM Mg^2+, 2.5 mM probenecid, pH to 7.4), 180 μl of buffer or test compound was added to the well and incubated for 30 minutes. The Victor 2V injectors were used to inject 20 μl of 5-HT after obtaining 10 0.1-second baseline readings at 535 nm, followed by 150 readings. All test compounds were aliquoted in 100% DMSO at 10 mM and diluted to 1 mM in 50% DMSO, subsequent dilutions were made using buffer. Buffer was also used to dilute the 5-HT. Data were analysed using Microsoft Excel and GraphPad Prism, with the latter used to produce sigmoidal dose-response curves for each compound. The compound concentration that inhibited the 5-HT response by 50% was taken (IC50-M), and the results are shown in Table 3, as pIC50, being the negative log (to the base 10) of the measured IC50 values.

T2 sequence (P28223 whole entry): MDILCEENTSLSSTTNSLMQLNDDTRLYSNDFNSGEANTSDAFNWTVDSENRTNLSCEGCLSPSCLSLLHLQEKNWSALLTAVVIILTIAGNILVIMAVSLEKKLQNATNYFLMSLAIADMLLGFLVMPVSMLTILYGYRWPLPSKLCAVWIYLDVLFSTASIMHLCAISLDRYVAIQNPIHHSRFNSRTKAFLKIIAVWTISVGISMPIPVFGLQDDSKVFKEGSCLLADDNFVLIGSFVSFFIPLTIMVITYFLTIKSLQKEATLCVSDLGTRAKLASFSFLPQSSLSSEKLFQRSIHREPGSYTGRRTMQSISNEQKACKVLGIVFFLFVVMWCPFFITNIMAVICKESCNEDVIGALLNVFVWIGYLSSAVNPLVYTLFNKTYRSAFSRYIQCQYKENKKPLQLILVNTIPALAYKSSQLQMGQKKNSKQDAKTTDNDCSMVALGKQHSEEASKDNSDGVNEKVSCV
T1 sequence (P41595 whole entry): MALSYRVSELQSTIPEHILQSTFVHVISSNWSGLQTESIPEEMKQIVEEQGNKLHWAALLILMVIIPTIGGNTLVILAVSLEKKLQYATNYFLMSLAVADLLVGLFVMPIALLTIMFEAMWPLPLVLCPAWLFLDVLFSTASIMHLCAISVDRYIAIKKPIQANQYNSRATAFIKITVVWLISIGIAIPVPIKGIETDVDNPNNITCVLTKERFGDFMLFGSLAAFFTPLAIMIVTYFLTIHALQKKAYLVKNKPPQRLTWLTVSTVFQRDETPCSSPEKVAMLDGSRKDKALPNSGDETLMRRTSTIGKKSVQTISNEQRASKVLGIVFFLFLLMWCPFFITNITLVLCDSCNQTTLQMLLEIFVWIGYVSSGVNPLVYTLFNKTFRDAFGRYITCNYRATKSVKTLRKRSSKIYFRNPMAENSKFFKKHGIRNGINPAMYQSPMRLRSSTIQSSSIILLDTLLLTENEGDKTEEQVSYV

For `CNc1nc(-c2cccc3ccccc23)co1` [Compound 2, 2-methylamino-4-(naphth-1-yl)oxazole], the melting point (usually the temperature, or range, at which the solid turns liquid) lay in the range of 164 to 166 °C. Besides, the Ki in series [1] was under 1000 nM. Moreover, the Ki in series [2] was over 10000 nM. Moreover, the Ki in series [3] is over 1000 nM. In addition, the IC50 (as a rule, the concentration that gives 50% inhibition) in series [4] is under 10000 nM.
The corresponding values for `Cc1nc(N)oc1-c1cccc2ccccc12` [Compound 3, 2-amino-4-methyl-5-(naphth-1-yl)oxazole] are 187 to 189 °C, under 10 nM, over 10000 nM, over 10000 nM and under 100 nM.
For the molecule `COc1ccc2ccccc2c1-c1coc(NC(C)=O)n1` [Compound 25, N-[4-(2-methoxy-naphthalen-1-yl)-oxazol-2-yl]-acetamide], the Ki was under 100 nM in series [1], over 1000 nM in series [2] and over 1000 nM in series [3]. In addition, the IC50 in series [4] was under 1000 nM.
As to `Nc1nc(-c2ccc3ccccc3c2)co1` [Compound 16, 4-naphthalen-2-yl-oxazol-2-ylamine], the Ki in series [1] was under 1000 nM; in series [2] it was over 10000 nM; in series [3] it was over 10000 nM. Moreover, in series [4], the IC50 was under 10000 nM.
